Experimental data as given in US12398154B2, “Azaquinazoline pan-KRas inhibitors” (Mirati Therapeutics, Inc., priority 2020, dated 2025).

Key:
[1] = test system: pERK in PSN1 cells; test: Inhibition of KRas phosphorylation of ERK (Cisbio HTRF pERK assay); conditions: Homo sapiens, PSN1, 3 h, read-out: Inhibition (HTRF IC50) of KRas-mediated Phosphorylation of ERK, PSN1
[2] = molecular target: KRas G12R (Homo sapiens, UniProt P01116, G12R); test: biochemical;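 note: TR-FRET displacement assay of compound binding to KRas, read after one hour at room temperature, potency from a four-parameter fit of percent-of-control values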
Sequence of KRas G12R (P01116 1-169 isoform P01116-2 G12R): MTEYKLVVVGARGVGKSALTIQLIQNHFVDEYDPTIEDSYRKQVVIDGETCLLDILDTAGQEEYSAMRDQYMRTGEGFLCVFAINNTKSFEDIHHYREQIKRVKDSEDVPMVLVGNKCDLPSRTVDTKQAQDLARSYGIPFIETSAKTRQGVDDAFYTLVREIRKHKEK
Experimental: (§1) The ability of a compound to bind to KRas was measured using a TR-FRET displacement assay. […] After a 60-minute incubation at room temperature, the reaction was measured using a BMG LABTECH CLARIO star Plus via TR-FRET. […] The POC values were fit to a 4-parameter IC50 equation and the IC50 value reported.

[3] = test system: pERK in MKN1 cells; test: Inhibition of KRas phosphorylation of ERK (Cisbio HTRF pERK assay); conditions: Homo sapiens, MKN-1, 3 h, read-out: Inhibition (HTRF IC50) of KRas-mediated Phosphorylation of ERK, MKN1
Experimental: To harvest cells from flask using 0.05% Trypsin/EDTA solution. Add 10 mL of media to stop trypsinizing. Pipette the cells into a conical bottom 50 mL centrifuge tube and centrifuge 5 min×1000 rpm. • 2. Re-suspend the cell pellet in media, take a cell count, and then adjust the cell density using fresh media. • 3. Seed 6,000 cells into cell culture plate with 50 μL media. […] Incubate cell plate overnight in a 37° C., 5% CO2 incubator. • Compound titrations • 1. Use Tecan to complete the compound addition. Compounds start from 10 uM top, 3-fold dilution, and 10 doses. The final DMSO concentration is 0.8%. Dispensed 0.2 uM Trametinib as Min control. • 2. Incubate cell plate for 3 hrs in the incubator. • Detection with cisbio pERK HTRF kit • 1. […] At the end of the compound treatment, flick-off the media. • 3. Add 35 μL of lysis buffer per well using a Multidrop Combi. Then place on a plate agitator shaking at 300 rpm at 4° C. for 40 mins. • 4. Make up the HTRF antibody buffer. For each assay plate, mix 50 μL of d2-conjugate antibody with 950 μL of detection buffer. Similarly, mix 50 μL of Cryptate antibody with 950 μL of detection buffer. Then mix the two diluted antibodies together. • 5. Dispense 3.4 μL the antibody buffer to wells of an empty assay plate. Seal the plate and centrifuge plate 30 sec×1000 rpm. • 6. At the end of the 4° C. lysis, centrifuge the lysate plates 3 mins×1500 rpm. • 7. Use the Bravo to transfer 13.6 μL of lysate from cell culture plate to assay plate.
Then incubate assay plate for 2 hrs at room temperature. […] At the end of incubation, read plate on the Envision after centrifuging plate 30 sec× • 1000 rpm.

[4] = test system: pERK in ASPC1 cells; test: as above; conditions: Homo sapiens, ASPC1, read-out: Inhibition (HTRF IC50) of KRas-mediated Phosphorylation of ERK, AsPC-1
[5] = molecular target: KRas G12D (Homo sapiens, UniProt P01116, G12D); test: biochemical;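 note: TR-FRET displacement binding assay on KRas, read after a one-hour incubation at room temperature, IC50 fitted from percent-of-control values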
Sequence of KRas G12D (P01116 1-169 isoform P01116-2 G12D): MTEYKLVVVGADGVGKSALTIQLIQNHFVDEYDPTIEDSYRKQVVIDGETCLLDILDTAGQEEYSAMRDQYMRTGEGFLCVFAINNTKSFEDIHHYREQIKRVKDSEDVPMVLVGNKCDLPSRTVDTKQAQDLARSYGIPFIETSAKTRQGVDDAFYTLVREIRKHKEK
Experimental: as §1

[6] = molecular target: KRas G12V (Homo sapiens, UniProt P01116, G12V); test: biochemical;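 note: KRas binding measured by TR-FRET displacement at room temperature, IC50 fitted from percent of control values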
Sequence of KRas G12V (P01116 1-169 isoform P01116-2 G12V): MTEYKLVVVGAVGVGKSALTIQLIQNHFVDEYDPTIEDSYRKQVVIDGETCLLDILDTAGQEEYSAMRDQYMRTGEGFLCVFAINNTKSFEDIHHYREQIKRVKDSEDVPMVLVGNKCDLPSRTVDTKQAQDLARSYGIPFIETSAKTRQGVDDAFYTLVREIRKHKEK
Experimental: as §1

[7] = molecular target: KRas WT (Homo sapiens, UniProt P01116); test: biochemical;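 note: binding to KRas read as TR-FRET displacement after a one-hour room-temperature incubation, IC50 derived from percent-of-control values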
Sequence of KRas WT (P01116 1-169 isoform P01116-2): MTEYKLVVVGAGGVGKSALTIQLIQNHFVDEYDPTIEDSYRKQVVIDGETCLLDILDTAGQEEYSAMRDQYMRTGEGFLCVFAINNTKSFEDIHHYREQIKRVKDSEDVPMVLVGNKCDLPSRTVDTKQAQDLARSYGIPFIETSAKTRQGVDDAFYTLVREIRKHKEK
Experimental: as §1

[8] = molecular target: KRas G12C (Homo sapiens, UniProt P01116, G12C); test: biochemical;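 note: binding to KRas assessed by TR-FRET displacement after one hour incubation at room temperature, potency fitted from percent-of-control values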
Sequence of KRas G12C (P01116 1-169 isoform P01116-2 G12C): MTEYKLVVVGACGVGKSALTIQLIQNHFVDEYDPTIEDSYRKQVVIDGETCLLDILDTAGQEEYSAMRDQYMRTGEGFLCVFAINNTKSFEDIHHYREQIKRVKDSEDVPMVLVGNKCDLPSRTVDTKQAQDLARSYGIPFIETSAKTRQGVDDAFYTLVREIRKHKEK
Experimental: as §1

[9] = molecular target: KRas G12A (Homo sapiens, UniProt P01116, G12A); test: biochemical;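 note: binding to KRas measured by TR-FRET displacement after one hour at room temperature, IC50 from a four-parameter fit of percent-of-control values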
Sequence of KRas G12A (P01116 1-169 isoform P01116-2 G12A): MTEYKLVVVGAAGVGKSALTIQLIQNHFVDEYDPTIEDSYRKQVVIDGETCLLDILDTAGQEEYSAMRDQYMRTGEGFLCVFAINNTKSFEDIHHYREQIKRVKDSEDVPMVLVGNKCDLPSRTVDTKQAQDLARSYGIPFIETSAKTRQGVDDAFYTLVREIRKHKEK
Experimental: as §1

[10] = molecular target: KRas G12S (Homo sapiens, UniProt P01116, G12S); test: biochemical;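 note: TR-FRET displacement binding to KRas, read after one hour incubation at room temperature, IC50 from four-parameter fit of percent of control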
Sequence of KRas G12S (P01116 1-169 isoform P01116-2 G12S): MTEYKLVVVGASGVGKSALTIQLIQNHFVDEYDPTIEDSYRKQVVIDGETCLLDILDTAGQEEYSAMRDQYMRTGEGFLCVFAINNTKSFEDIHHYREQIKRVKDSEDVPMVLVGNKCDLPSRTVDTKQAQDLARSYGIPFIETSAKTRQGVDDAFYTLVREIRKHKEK
Experimental: as §1

SMILES | IC50 [1] | IC50 [2] | IC50 [3] | IC50 [4] | IC50 [5] | IC50 [6] | IC50 [7] | IC50 [8] | IC50 [9] | IC50 [10]
CCc1c(F)ccc2cc(O)cc(-c3ncc4c(N5CCC[C@](C)(O)C5)nc(OC[C@@]56CCCN5C[C@H](F)C6)nc4c3F)c12 [Example 4] | ≥ 10000 nM | – | – | – | – | – | – | – | – | –
O=C1CC2(CCCN(c3nc(OCC45CCCN4CCC5)nc4c(F)c(-c5cccc6cccc(F)c56)ncc34)C2)CN1 (stereo not shown) [Example 20, 7-(8-fluoro-7-(8-fluoronaphthalen-1-yl)-2-((hexahydro-1H-pyrrolizin-7a-yl)methoxy)pyrido[4,3-d]pyrimidin-4-yl)-2,7-diazaspiro[4.5]decan-3-one] | – | 7390 nM | – | – | 2390 nM | 3400 nM | 2970 nM | 3180 nM | 2780 nM | 2980 nM
Fc1c(-c2cccc3cccc(F)c23)ncc2c(Nc3cnc4cnccn34)nc(OCC34CCCN3CCC4)nc12 [Example 34, 8-fluoro-7-(8-fluoronaphthalen-1-yl)-N-(imidazo[1,2-a]pyrazin-3-yl)-2-((tetrahydro-1H-pyrrolizin-7a(5H)-yl)methoxy)pyrido[4,3-d]pyrimidin-4-amine] | – | ≥ 100000 nM | – | – | 11100 nM | 15000 nM | 28100 nM | 35000 nM | 48700 nM | 53500 nM
O=C1NC2(CCCN(c3nc(OCC45CCCN4CCC5)nc4c(F)c(-c5cccc6cccc(F)c56)ncc34)C2)CO1 (stereo not shown) [Example 227, 7-(8-fluoro-7-(8-fluoronaphthalen-1-yl)-2-((hexahydro-1H-pyrrolizin-7a-yl)methoxy)pyrido[4,3-d]pyrimidin-4-yl)-3-oxa-1,7-diazaspiro[4.5]decan-2-one] | – | 3060 nM | – | – | 1240 nM | 2430 nM | 3390 nM | 2720 nM | – | –
NC(=O)C1COCCN(c2nc(OCC34CCCN3CCC4)nc3c(F)c(-c4cccc5cccc(F)c45)ncc23)C1 (stereo not shown) [Example 270, 4-(8-fluoro-7-(8-fluoronaphthalen-1-yl)-2-((hexahydro-1H-pyrrolizin-7a-yl)methoxy)pyrido[4,3-d]pyrimidin-4-yl)-1,4-oxazepane-6-carboxamide] | – | 7590 nM | – | – | 2630 nM | 2100 nM | 4190 nM | 2830 nM | – | –
O=C(c1cc2n(n1)CCCN(c1nc(OCC34CCCN3CCC4)nc3c(F)c(-c4cccc5cccc(F)c45)ncc13)C2)N1CCC1 [Example 277, azetidin-1-yl(5-(8-fluoro-7-(8-fluoronaphthalen-1-yl)-2-((hexahydro-1H-pyrrolizin-7a-yl)methoxy)pyrido[4,3-d]pyrimidin-4-yl)-5,6,7,8-tetrahydro-4H-pyrazolo[1,5-a][1,4]diazepin-2-yl)methanone] | – | 4910 nM | – | – | 765 nM | 1800 nM | 5290 nM | – | – | –

The next lines start with the values.

IC50 [1] | IC50 [2] | IC50 [3] | IC50 [4] | IC50 [5] | IC50 [6] | IC50 [7] | IC50 [8] | IC50 [9] | IC50 [10] | SMILES
≥ 10000 nM | 14 nM | 254 nM | 3520 nM | 84 nM | 15 nM | – | – | – | – | CCc1c(F)ccc2cc(O)cc(-c3ncc4c(NC[C@H]5COC[C@H]5O)nc(OC[C@@]56CCCN5C[C@H](F)C6)nc4c3F)c12 (single isomer, unassigned) [Example 492]
≥ 10000 nM | 9 nM | 622 nM | ≥ 10000 nM | 130 nM | 11 nM | – | – | – | – | CCc1c(F)ccc2cc(O)cc(-c3ncc4c(NC[C@@H]5COC[C@@H]5O)nc(OC[C@@]56CCCN5C[C@H](F)C6)nc4c3F)c12 (single isomer, unassigned) [Example 493]
≥ 10000 nM | 51 nM | ≥ 10000 nM | ≥ 10000 nM | 22 nM | 27 nM | – | – | – | – | CCc1c(F)ccc2cc(O)cc(-c3ncc4c(N5C[C@@H]6C(CO)NC(=O)[C@@H]6C5)nc(OC[C@@]56CCCN5C[C@H](F)C6)nc4c3F)c12 (stereo in doubt) [Example 488, (3R,3aR,6aS)-5-(7-(8-ethyl-7-fluoro-3-hydroxynaphthalen-1-yl)-8-fluoro-2-(((2R,7aS)-2-fluorotetrahydro-1H-pyrrolizin-7a(5H)-yl)methoxy)pyrido[4,3-d]pyrimidin-4-yl)-3-(hydroxymethyl)hexahydropyrrolo[3,4-c]pyrrol-1(2H)-one]
– | 2120 nM | – | – | 85300 nM | 3120 nM | 36800 nM | 4720 nM | – | – | CC(Nc1nc(OCC23CCCN2CCC3)nc2c(F)c(-c3cccc4cccc(F)c34)ncc12)c1c[nH]c2ncccc12 (stereo not shown) [Example 229, N-(1-(1H-pyrrolo[2,3-b]pyridin-3-yl)ethyl)-8-fluoro-7-(8-fluoronaphthalen-1-yl)-2-((tetrahydro-1H-pyrrolizin-7a(5H)-yl)methoxy)pyrido[4,3-d]pyrimidin-4-amine]
– | 3040 nM | – | – | 1980 nM | 4030 nM | 9090 nM | 4410 nM | 4940 nM | 3550 nM | CNc1cc2n(n1)CCCN(c1nc(OCC34CCCN3CCC4)nc3c(F)c(-c4cccc5cccc(F)c45)ncc13)C2 [Example 263, 5-(8-fluoro-7-(8-fluoronaphthalen-1-yl)-2-((tetrahydro-1H-pyrrolizin-7a(5H)-yl)methoxy)pyrido[4,3-d]pyrimidin-4-yl)-N-methyl-5,6,7,8-tetrahydro-4H-pyrazolo[1,5-a][1,4]diazepin-2-amine]
– | 1920 nM | – | – | 5310 nM | 2740 nM | 2460 nM | 3310 nM | 3020 nM | 2510 nM | O=C1CC2(CCCN(c3nc(OCC45CCCN4CCC5)nc4c(F)c(-c5cccc6cccc(F)c56)ncc34)C2)C(=O)N1 (stereo not shown) [Example 265, 7-(8-fluoro-7-(8-fluoronaphthalen-1-yl)-2-((hexahydro-1H-pyrrolizin-7a-yl)methoxy)pyrido[4,3-d]pyrimidin-4-yl)-2,7-diazaspiro[4.5]decane-1,3-dione]
– | 1210 nM | – | – | 212 nM | 303 nM | 3220 nM | – | – | – | O=C(c1cc2n(n1)CCCN(c1nc(OCC34CCCN3CCC4)nc3c(F)c(-c4cccc5cccc(F)c45)ncc13)C2)N1CCOCC1 [Example 276, (5-(8-fluoro-7-(8-fluoronaphthalen-1-yl)-2-((hexahydro-1H-pyrrolizin-7a-yl)methoxy)pyrido[4,3-d]pyrimidin-4-yl)-5,6,7,8-tetrahydro-4H-pyrazolo[1,5-a][1,4]diazepin-2-yl)(morpholino)methanone]
– | 1860 nM | – | – | 801 nM | 1990 nM | 3670 nM | – | – | – | Cc1c(N)nn2c1CN(c1nc(OCC34CCCN3CCC4)nc3c(F)c(-c4cccc5cccc(F)c45)ncc13)CCC2 [Example 278, 5-(8-fluoro-7-(8-fluoronaphthalen-1-yl)-2-((hexahydro-1H-pyrrolizin-7a-yl)methoxy)pyrido[4,3-d]pyrimidin-4-yl)-3-methyl-5,6,7,8-tetrahydro-4H-pyrazolo[1,5-a][1,4]diazepin-2-amine]
≥ 10000 nM | 13 nM | 660 nM | – | 56 nM | 5 nM | – | – | – | – | CCc1c(F)ccc2cc(O)cc(-c3ncc4c(NCCN5CCNC5=O)nc(OC[C@@]56CCCN5C[C@H](F)C6)nc4c3F)c12 [Example 372, 1-(2-((7-(8-ethyl-7-fluoro-3-hydroxynaphthalen-1-yl)-8-fluoro-2-(((2R,7aS)-2-fluorotetrahydro-1H-pyrrolizin-7a(5H)-yl)methoxy)pyrido[4,3-d]pyrimidin-4-yl)amino)ethyl)imidazolidin-2-one]
